{"source": "ChEMBL document CHEMBL5120927", "about": "“LEGO-Lipophosphonoxins: A Novel Approach in Designing Membrane Targeting Antimicrobials” (J Med Chem, 2022)", "key": {"Staphylococcus aureus [1]": {"system": "Staphylococcus aureus", "experiment": "Antibacterial activity against wild type Staphylococcus aureus 4679/B assessed as reduction in microbial growth incubated for 24 hrs by microdilution assay", "format": "functional"}, "Enterococcus faecium": {"system": "Enterococcus faecium", "experiment": "Antibacterial activity against vancomycin resistant Enterococcus faecium 419/ANA assessed as reduction in microbial growth incubated for 24 hrs by microdilution assay", "format": "functional"}, "Staphylococcus aureus [2]": {"system": "Staphylococcus aureus", "experiment": "Antibacterial activity against wild type Staphylococcus aureus 4561/A assessed as reduction in microbial growth incubated for 24 hrs by microdilution assay", "format": "functional"}, "Pseudomonas aeruginosa [3]": {"system": "Pseudomonas aeruginosa", "experiment": "Antibacterial activity against multidrug-resistant Pseudomonas aeruginosa assessed as reduction in microbial growth incubated for 24 hrs by microdilution assay", "format": "functional"}, "Escherichia coli [4]": {"system": "Escherichia coli", "experiment": "Antibacterial activity against Escherichia coli ATCC 25922 = CCM 3954 assessed as inhibition of bacterial growth incubated for 24 hrs by microdilution assay", "format": "functional"}, "Staphylococcus aureus [5]": {"system": "Staphylococcus aureus", "experiment": "Antibacterial activity against wild type Staphylococcus aureus 4883/C assessed as reduction in microbial growth incubated for 24 hrs by microdilution assay", "format": "functional"}, "Staphylococcus aureus [6]": {"system": "Staphylococcus aureus", "experiment": "Antibacterial activity against wild type Staphylococcus aureus 4502/A assessed as reduction in microbial growth incubated for 24 hrs by microdilution assay", "format": "functional"}, "Staphylococcus aureus [7]": {"system": "Staphylococcus aureus", "experiment": "Antibacterial activity against methicillin resistant Staphylococcus aureus 4591/A assessed as reduction in microbial growth incubated for 24 hrs by microdilution assay", "format": "functional"}, "Staphylococcus aureus [8]": {"system": "Staphylococcus aureus", "experiment": "Antibacterial activity against Staphylococcus aureus ATCC 29213 = CCM 4223 assessed as inhibition of bacterial growth incubated for 24 hrs in presence of BSA by microdilution assay", "format": "functional"}, "Enterococcus faecalis": {"system": "Enterococcus faecalis", "experiment": "Antibacterial activity against Enterococcus faecalis ATCC 29212 = CCM 4224 assessed as inhibition of bacterial growth incubated for 24 hrs by microdilution assay", "format": "functional"}, "Staphylococcus aureus [9]": {"system": "Staphylococcus aureus", "experiment": "Antibacterial activity against wild type Staphylococcus aureus 4482/A assessed as reduction in microbial growth incubated for 24 hrs by microdilution assay", "format": "functional"}, "Staphylococcus aureus [10]": {"system": "Staphylococcus aureus", "experiment": "Antibacterial activity against wild type Staphylococcus aureus 4557/A assessed as reduction in microbial growth incubated for 24 hrs by microdilution assay", "format": "functional"}, "Staphylococcus aureus [11]": {"system": "Staphylococcus aureus", "experiment": "Antibacterial activity against wild type Staphylococcus aureus 4788/B assessed as reduction in microbial growth incubated for 24 hrs by microdilution assay", "format": "functional"}, "Staphylococcus aureus [12]": {"system": "Staphylococcus aureus", "experiment": "Antibacterial activity against […] Staphylococcus aureus 4463/A assessed as reduction in microbial growth incubated for 24 hrs by microdilution assay", "format": "functional"}, "[13]": {"experiment": "Toxicity in rabbit assessed as clinical sign at 10 to 200 mg/kg, po", "format": "organism-based, Oryctolagus cuniculus", "settings": "in vivo, dose 10-200 mg/kg"}, "Staphylococcus aureus [14]": {"system": "Staphylococcus aureus", "experiment": "Antibacterial activity against wild type Staphylococcus aureus 4738/B assessed as reduction in microbial growth incubated for 24 hrs by microdilution assay", "format": "functional"}, "Staphylococcus aureus [15]": {"system": "Staphylococcus aureus", "experiment": "Antibacterial activity against wild type Staphylococcus aureus 77/CF assessed as reduction in microbial growth incubated for 24 hrs by microdilution assay", "format": "functional"}, "Staphylococcus aureus [16]": {"system": "Staphylococcus aureus", "experiment": "Antibacterial activity against […] Staphylococcus aureus 4460/A assessed as reduction in microbial growth incubated for 24 hrs by microdilution assay", "format": "functional"}, "Escherichia coli [17]": {"system": "Escherichia coli", "experiment": "Antibacterial activity against Escherichia coli ATCC 25922 = CCM 3954 assessed as inhibition of bacterial growth incubated for 24 hrs in presence of BSA by microdilution assay", "format": "functional"}, "Staphylococcus aureus [18]": {"system": "Staphylococcus aureus", "experiment": "Antibacterial activity against wild type Staphylococcus aureus 4904/C assessed as reduction in microbial growth incubated for 24 hrs by microdilution assay", "format": "functional"}, "[19]": {"experiment": "Toxicity in rabbit assessed as pathological changes in necropsy at 10 to 200 mg/kg, po", "format": "organism-based, Oryctolagus cuniculus", "settings": "in vivo, dose 10-200 mg/kg"}, "[20]": {"experiment": "Toxicity in rabbit assessed as clinical sign at 0.5 to 15 mg/kg, sc", "format": "organism-based, Oryctolagus cuniculus", "settings": "in vivo, dose 0.5-15 mg/kg"}, "Staphylococcus aureus [21]": {"system": "Staphylococcus aureus", "experiment": "Antibacterial activity against wild type Staphylococcus aureus 4968/C assessed as reduction in microbial growth incubated for 24 hrs by microdilution assay", "format": "functional"}, "Staphylococcus aureus [22]": {"system": "Staphylococcus aureus", "experiment": "Antibacterial activity against Staphylococcus aureus ATCC 29213 = CCM 4223 assessed as inhibition of bacterial growth incubated for 24 hrs by microdilution assay", "format": "functional"}, "[23]": {"experiment": "Hemolytic activity in human RBC assessed as haemoglobin release measured after 3 hr", "format": "toxicity, cell-based, Erythrocyte", "settings": "red blood cells (erythrocytes)"}, "Staphylococcus aureus [24]": {"system": "Staphylococcus aureus", "experiment": "microbe, parasite or virus in culture", "settings": "4862/C, 24 h", "description": "Antibacterial activity against wild type Staphylococcus aureus 4862/C assessed as reduction in microbial growth incubated for 24 hrs by microdilution assay"}, "Pseudomonas aeruginosa [25]": {"system": "Pseudomonas aeruginosa", "experiment": "Antibacterial activity against Pseudomonas aeruginosa ATCC 27853 = CCM 3955 assessed as inhibition of bacterial growth incubated for 24 hrs by microdilution assay", "format": "functional"}, "[26]": {"system": "Staphylococcus epidermidis", "experiment": "Antibacterial activity against Staphylococcus epidermidis CCM 7221 assessed as inhibition of bacterial growth incubated for 24 hrs by microdilution assay", "format": "functional"}, "Staphylococcus aureus [27]": {"system": "Staphylococcus aureus", "experiment": "Antibacterial activity against wild type Staphylococcus aureus 4740/B assessed as reduction in microbial growth incubated for 24 hrs by microdilution assay", "format": "functional"}, "Escherichia coli [28]": {"system": "Escherichia coli", "experiment": "Antibacterial activity against multidrug-resistant Escherichia coli CE5556 expressing CTX-M-15 assessed as reduction in microbial growth incubated for 24 hrs by microdilution assay", "format": "functional"}, "Staphylococcus aureus [29]": {"system": "Staphylococcus aureus", "experiment": "Antibacterial activity against wild type Staphylococcus aureus 4515/A assessed as reduction in microbial growth incubated for 24 hrs by microdilution assay", "format": "functional"}, "Staphylococcus aureus [30]": {"system": "Staphylococcus aureus", "experiment": "Antibacterial activity against wild type Staphylococcus aureus 78/CF assessed as reduction in microbial growth incubated for 24 hrs by microdilution assay", "format": "functional"}, "[31]": {"experiment": "Toxicity in rabbit assessed as pathological changes in necropsy at 0.5 to 15 mg/kg, sc", "format": "organism-based, Oryctolagus cuniculus", "settings": "in vivo, dose 0.5-15 mg/kg"}, "[32]": {"experiment": "Gradient chromatographic hydrophobicity index of the compound at pH 3.7 by HPLC analysis", "format": "ADME"}, "Staphylococcus aureus [33]": {"system": "Staphylococcus aureus", "experiment": "Antibacterial activity against wild type Staphylococcus aureus 4504/A assessed as reduction in microbial growth incubated for 24 hrs by microdilution assay", "format": "functional"}, "Staphylococcus aureus [34]": {"system": "Staphylococcus aureus", "experiment": "Antibacterial activity against wild type Staphylococcus aureus 4566/A assessed as reduction in microbial growth incubated for 24 hrs by microdilution assay", "format": "functional"}, "Staphylococcus aureus [35]": {"system": "Staphylococcus aureus", "experiment": "Antibacterial activity against wild type Staphylococcus aureus 5079/C assessed as reduction in microbial growth incubated for 24 hrs by microdilution assay", "format": "functional"}, "Staphylococcus aureus [36]": {"system": "Staphylococcus aureus", "experiment": "Antibacterial activity against […] Staphylococcus aureus 4461/A assessed as reduction in microbial growth incubated for 24 hrs by microdilution assay", "format": "functional"}, "Staphylococcus aureus [37]": {"system": "Staphylococcus aureus", "experiment": "Antibacterial activity against wild type Staphylococcus aureus 4717/B assessed as reduction in microbial growth incubated for 24 hrs by microdilution assay", "format": "functional"}, "Staphylococcus aureus [38]": {"system": "Staphylococcus aureus", "experiment": "microbe, parasite or virus in culture", "settings": "4880/C, 24 h", "description": "Antibacterial activity against wild type Staphylococcus aureus 4880/C assessed as reduction in microbial growth incubated for 24 hrs by microdilution assay"}, "Staphylococcus aureus [39]": {"system": "Staphylococcus aureus", "experiment": "microbe, parasite or virus in culture", "settings": "5017/C, 24 h", "description": "Antibacterial activity against wild type Staphylococcus aureus 5017/C assessed as reduction in microbial growth incubated for 24 hrs by microdilution assay"}}, "data": [{"smiles": "CCCC/C=C\\CCOP(=O)(CCN(CCCN)CCCN)OCCCCCOP(=O)(CCN(CCCN)CCCN)OCC/C=C\\CCCC.Cl.Cl.Cl.Cl.Cl.Cl", "note": "(stereo unspecified)", "values": [{"measurement": "MIC", "setting": "Staphylococcus aureus [1]", "value": 4, "unit": "µg/mL"}, {"measurement": "MIC", "setting": "Enterococcus faecium", "value": 128, "unit": "µg/mL"}, {"measurement": "MIC", "setting": "Staphylococcus aureus [2]", "value": 4, "unit": "µg/mL"}, {"measurement": "MIC", "setting": "Pseudomonas aeruginosa [3]", "value": 32, "unit": "µg/mL"}, {"measurement": "MIC", "setting": "Escherichia coli [4]", "value": 8, "unit": "µg/mL"}, {"measurement": "MIC", "setting": "Staphylococcus aureus [5]", "value": 2, "unit": "µg/mL"}, {"measurement": "MIC", "setting": "Staphylococcus aureus [6]", "value": 4, "unit": "µg/mL"}, {"measurement": "MIC", "setting": "Staphylococcus aureus [7]", "value": 2, "unit": "µg/mL"}, {"measurement": "MIC", "setting": "Staphylococcus aureus [8]", "value": 8, "unit": "µg/mL"}, {"measurement": "MIC", "setting": "Enterococcus faecalis", "value": 32, "unit": "µg/mL"}, {"measurement": "MIC", "setting": "Staphylococcus aureus [9]", "value": 4, "unit": "µg/mL"}, {"measurement": "MIC", "setting": "Staphylococcus aureus [10]", "value": 2, "unit": "µg/mL"}, {"measurement": "MIC", "setting": "Staphylococcus aureus [11]", "value": 4, "unit": "µg/mL"}, {"measurement": "MIC", "setting": "Staphylococcus aureus [12]", "value": 4, "unit": "µg/mL"}, {"measurement": "Activity", "setting": "[13]", "value": "Non-Toxic"}, {"measurement": "MIC", "setting": "Staphylococcus aureus [14]", "value": 4, "unit": "µg/mL"}, {"measurement": "MIC", "setting": "Staphylococcus aureus [15]", "value": 4, "unit": "µg/mL"}, {"measurement": "MIC", "setting": "Staphylococcus aureus [16]", "value": 4, "unit": "µg/mL"}, {"measurement": "MIC", "setting": "Escherichia coli [17]", "value": 4, "unit": "µg/mL"}, {"measurement": "MIC", "setting": "Staphylococcus aureus [18]", "value": 4, "unit": "µg/mL"}, {"measurement": "Activity", "setting": "[19]", "value": "Non-Toxic"}, {"measurement": "Activity", "setting": "[20]", "value": "Non-Toxic"}, {"measurement": "MIC", "setting": "Staphylococcus aureus [21]", "value": 4, "unit": "µg/mL"}, {"measurement": "MIC", "setting": "Staphylococcus aureus [22]", "value": 2, "unit": "µg/mL"}, {"measurement": "HC50 at 3 h", "setting": "[23]", "value": 70, "unit": "µg/mL"}, {"measurement": "MIC", "setting": "Staphylococcus aureus [24]", "value": 4, "unit": "µg/mL"}, {"measurement": "MIC", "setting": "Pseudomonas aeruginosa [25]", "value": 32, "unit": "µg/mL"}, {"measurement": "MIC", "setting": "[26]", "value": 0.5, "unit": "µg/mL"}, {"measurement": "MIC", "setting": "Staphylococcus aureus [27]", "value": 4, "unit": "µg/mL"}, {"measurement": "MIC", "setting": "Escherichia coli [28]", "value": 4, "unit": "µg/mL"}, {"measurement": "MIC", "setting": "Staphylococcus aureus [29]", "value": 4, "unit": "µg/mL"}, {"measurement": "MIC", "setting": "Staphylococcus aureus [30]", "value": 8, "unit": "µg/mL"}, {"measurement": "Activity", "setting": "[31]", "value": "Non-Toxic"}, {"measurement": "CHI", "setting": "[32]", "value": 33.3}, {"measurement": "MIC", "setting": "Staphylococcus aureus [33]", "value": 4, "unit": "µg/mL"}, {"measurement": "MIC", "setting": "Staphylococcus aureus [34]", "value": 4, "unit": "µg/mL"}, {"measurement": "MIC", "setting": "Staphylococcus aureus [35]", "value": 4, "unit": "µg/mL"}, {"measurement": "MIC", "setting": "Staphylococcus aureus [36]", "value": 4, "unit": "µg/mL"}, {"measurement": "MIC", "setting": "Staphylococcus aureus [37]", "value": 2, "unit": "µg/mL"}, {"measurement": "MIC", "setting": "Staphylococcus aureus [38]", "value": 4, "unit": "µg/mL"}, {"measurement": "MIC", "setting": "Staphylococcus aureus [39]", "value": 4, "unit": "µg/mL"}]}]}
